pIC50: −log10 of the molar value. Structures can show the parent of a compound that is named as a salt. Where two headings read alike, the source gives them in different places.
How the values were obtained:
[1] = system: LPS-induced TNF-α production in RAW264.7 murine macrophage cells; experiment: Suppression of LPS-induced TNF-α production in RAW264.7 macrophages (ELISA); format: cell-based; conditions: Mus musculus
Description: Macrophages serve a critical role in the initiation and propagation of inflammatory responses by releasing proinflammatory mediators, such as TNF-α. Lipopolysaccharide (LPS) is a potent initiator of an inflammatory response. During LPS stimulation, NF-κB signaling is activated to regulate the transcription of numerous genes involved in immunity and inflammation to produce proinflammatory cytokines, such as TNF-α. Suppression of LPS-induced TNF-α production in RAW264.7 macrophages treated with AABZ was investigated by evaluation of the generation of TNF-α.
The RAW264.7 macrophage line was maintained in DMEM supplemented with 5% FBS at 37° C. in a 5% CO2-humidified air environment. The RAW264.7 cells were seeded in 96-well plates at a density of 1×10^5/ml and a volume of 200 μl/well. The cells were incubated for 24 h in medium supplemented with 10% FBS and were then pre-incubated with or without the indicated concentrations of test substances for 2 h prior to the addition of LPS (1 μg/ml). The supernatants were subsequently harvested at various time points and production of the proinflammatory cytokine TNF-α in the culture medium was determined using a commercially available enzyme-linked immunosorbent assay (ELISA) kit according to the manufacturer's protocol.
Effects of some AABZs of the invention at 1 mM on LPS-induced TNF-production in RAW264.7 murine macrophage cells are shown in Table 2.

[2] = system: AP-1; conditions: T cells; cited from earlier work
[3] = target: dopamine D2 receptor (Homo sapiens (Human), UniProt P14416); experiment: Dopamine D2 receptor affinity, in vitro radioligand binding with 125I-spiperone; conditions: 125I-spiperone as radioactive ligand
Description: It is well-known that drug compounds that have an affinity for the striatal dopamine D2 may give rise to adverse side effects, such as short-term extrapyramidal disorders and tardive dyskinesia.

[4] = system: NFAT; conditions: T cells; cited from earlier work
[5] = system: IκBβ; conditions: cited from earlier work
[6] = system: NF-κB; conditions: T cells; cited from earlier work
[7] = RAW264.7, read-out: % Inhibition of TNF-production

dopamine D2 receptor, sequence (P14416 whole entry, species assumed): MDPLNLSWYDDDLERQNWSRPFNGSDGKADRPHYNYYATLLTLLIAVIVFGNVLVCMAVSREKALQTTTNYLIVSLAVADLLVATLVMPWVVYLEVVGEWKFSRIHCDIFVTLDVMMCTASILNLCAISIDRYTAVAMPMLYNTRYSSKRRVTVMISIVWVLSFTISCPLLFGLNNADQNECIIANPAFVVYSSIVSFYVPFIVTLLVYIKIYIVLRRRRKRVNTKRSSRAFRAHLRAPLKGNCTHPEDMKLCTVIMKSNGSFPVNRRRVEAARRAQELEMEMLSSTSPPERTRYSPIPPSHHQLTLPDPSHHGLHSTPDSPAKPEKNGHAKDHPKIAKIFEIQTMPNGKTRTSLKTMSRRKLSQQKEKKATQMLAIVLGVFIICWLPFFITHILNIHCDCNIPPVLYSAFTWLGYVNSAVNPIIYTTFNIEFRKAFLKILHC

For `CCN(CC)CCNC(=O)c1ccc(NC(C)=O)cc1` [4-Acetamido-N-[2-(diethylamino)ethyl]benzamide hydrochloride], the inhibition at 1000 µM ([1]; 1 mM, LPS 1 μg/ml, RAW264.7 murine macrophage cells, read-out: % Inhibition of TNF-production) was 56%.

Molecule `CCN(CC)CCNC(=O)c1ccc(NC(=O)C(C)C)c(Cl)c1` [4-Isobutyrylamino-3-chloro-N-[2-(diethylamino)ethyl]benzamide hydrochloride] has an inhibition at 1000 µM [1, 7] of 63%.

`CCC(=O)Nc1ccc(C(=O)NCCN(CC)CC)cc1Cl` [4-Propanoylamino-3-chloro-N-[2-(diethylamino)ethyl]benzamide hydrochloride] gave an inhibition at 1000 µM [1, 7] of 50%.

For `CCN(CC)CCNC(=O)c1ccc(NC(C)=O)c(Cl)c1` [Cpd A, 4-Acetamido-3-chloro-N-[2-(diethylamino)ethyl]benzamide hydrochloride], the “effect on AP-1 activity” value [2] is listed as “induce AP-1 activity”, the pIC50 [3] is listed as 3.01 and the “effect on NFAT activity” value [4] is listed as “inhibit activities”. The “effect on breakdown of IκBβ” value [5] was “inhibit breakdown”, the inhibition at 1000 µM [1, 7] was 45% and the “effect on NF-κB activity” value [6] was “inhibit activities”.

For `CCN(CC)CCNC(=O)c1ccc(N)c(Cl)c1` [Declopramide, declopramide], the pIC50 [3] was 4.41.
